T/C data for 19 compounds are collected here from PubChem BioAssay AID328 (DTP/NCI, 2004).

“And” between values parts separate entries of the source, which are not always exact repeats. Equal values may be shown once. Toxic doses and inconclusive results are not listed.

This experiment deals with BDF1 mice, P388 leukemia ip, median survival T/C. The experiment in a line: NCI In Vivo Anticancer Drug Screen. Data for tumor model P388 Leukemia (intraperitoneal) in B6D2F1 (BDF1) mice. The note with it: endpoint: median survival time, higher = longer survival. The method, boiled down: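 T/C = treated-group survival ÷ vehicle-control survival; tumour transplanted into mice before dosing.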

[1] abbreviates: dose: 100.0 mg/kg/injection, schedule: Q04DX003 (ip), vehicle: saline with Tween-80.
Setting [2] is: dose: 200.0 mg/kg/injection, schedule: Q04DX003 (ip), vehicle: saline with Tween-80.
Setting [3] is: dose: 400.0 mg/kg/injection, schedule: Q04DX003 (ip), vehicle: saline with Tween-80.
Where [4] appears, read: dose: 100.0 mg/kg/injection, schedule: Q01DX009 (ip), vehicle: saline.
The mark [5] stands for this setting: dose: 400.0 mg/kg/injection, schedule: Q01DX009 (ip), vehicle: saline.
[6] abbreviates: dose: 100.0 mg/kg/injection, schedule: Q01DX009 (ip), vehicle: Klucel (hydroxypropylcellulose) (HPC).
The mark [7] stands for this setting: dose: 100.0 mg/kg/injection, schedule: Q04DX003 (ip), vehicle: Klucel (hydroxypropylcellulose) (HPC).
Setting [8] is: dose: 200.0 mg/kg/injection, schedule: Q01DX009 (ip), vehicle: Klucel (hydroxypropylcellulose) (HPC).
[9] abbreviates: dose: 50.0 mg/kg/injection, schedule: Q04DX003 (ip), vehicle: saline with Tween-80.
Where [10] appears, read: dose: 50.0 mg/kg/injection, schedule: Q01DX009 (ip), vehicle: Klucel (hydroxypropylcellulose) (HPC).

In the case of `CC(=O)Nc1ccc2[nH]c(C)cc(=O)c2c1`, the T/C runs as follows: (dose: 25.0 mg/kg/injection, schedule: Q01DX009 (ip), vehicle: water) 94 % of control; (dose: 50.0 mg/kg/injection, schedule: Q01DX009 (ip), vehicle: water) 94 % of control; (dose: 50.0 mg/kg/injection, schedule: Q04DX003 (ip), vehicle: water) 101 % of control; (dose: 100.0 mg/kg/injection, schedule: Q01DX009 (ip), vehicle: water) 92 % of control; (dose: 100.0 mg/kg/injection, schedule: Q04DX003 (ip), vehicle: water) 106 % of control; (dose: 200.0 mg/kg/injection, schedule: Q01DX009 (ip), vehicle: water) 91 % of control. For the same compound, the T/C runs as follows: (dose: 200.0 mg/kg/injection, schedule: Q04DX003 (ip), vehicle: water) 95 % of control; (dose: 400.0 mg/kg/injection, schedule: Q01DX009 (ip), vehicle: water) 92 % of control; (dose: 400.0 mg/kg/injection, schedule: Q04DX003 (ip), vehicle: water) 113 % of control.
Regarding `N#C[SH2+].N#C[SH2+].N#C[SH2+].N#C[SH2+].[Cu+2].c1ccc(C[P+](c2ccccc2)(c2ccccc2)c2ccccc2)cc1`, the T/C (dose: 100.0 mg/kg/injection, schedule: Q01DX001 (ip), vehicle: saline with Tween-80) was 100 % of control.
As for `S=c1[nH]nc(-c2ccncc2)n1C1CCCCC1`, the T/C is 96 % of control (dose: 50.0 mg/kg/injection, schedule: Q04DX002 (ip), vehicle: saline with Tween-80); 92 % of control (dose: 100.0 mg/kg/injection, schedule: Q04DX002 (ip), vehicle: saline with Tween-80); 97 % of control (dose: 200.0 mg/kg/injection, schedule: Q04DX002 (ip), vehicle: saline with Tween-80).
For the compound `COC(=O)C1SCc2ccccc2C1=O` (configuration not stated), the T/C is 104 % of control under setting [1], 105 % of control under setting [2] and 105 % of control under setting [3].
In the case of `CC1=CCC2(C)C(=O)C1CC1=C2CC(C)(C)CC1=O` (configuration not stated), the T/C under setting [4] was 100 % of control and the T/C under setting [5] was 100 % of control.
Consider `O=C1CSC(c2ccccc2)N1` (configuration not stated), for which the T/C is 103 % of control under setting [6]; 100 % of control under setting [7]; 103 % of control under setting [8]; 96 % of control (dose: 400.0 mg/kg/injection, schedule: Q01DX009 (ip), vehicle: Klucel (hydroxypropylcellulose) (HPC)); 96 % of control (dose: 400.0 mg/kg/injection, schedule: Q04DX003 (ip), vehicle: Klucel (hydroxypropylcellulose) (HPC)).
`O=c1c2ccccc2sc2c(CO)ccc(NCCN3CCCCC3)c12`: the T/C was 101 % of control under setting [9]; 101 % of control under setting [1]; 115 % of control (dose: 176.0 mg/kg/injection, schedule: Q04DX003 (ip), vehicle: saline with Tween-80); 110 % of control under setting [2]; 123 % of control (dose: 264.0 mg/kg/injection, schedule: Q04DX003 (ip), vehicle: saline with Tween-80); 180 % of control (dose: 600.0 mg/kg/injection, schedule: Q04DX003 (ip), vehicle: saline with Tween-80).
Consider `CC(C(=O)O)[Se](=O)O` (configuration not stated), for which the T/C by setting is: (dose: 12.5 mg/kg/injection, schedule: Q04DX003 (ip), vehicle: saline) 101 % of control; (dose: 25.0 mg/kg/injection, schedule: Q04DX003 (ip), vehicle: saline) 101 % of control; (dose: 50.0 mg/kg/injection, schedule: Q04DX003 (ip), vehicle: saline) 100 % of control.
As for `CC1CCC2C(C)C(=O)OC2C2(C)C(=O)C=CC12` (configuration not stated), the T/C reads like this: (dose: 6.4 mg/kg/injection, schedule: Q01DX009 (ip), vehicle: alcohol) 106 % of control; (dose: 9.6 mg/kg/injection, schedule: Q01DX009 (ip), vehicle: alcohol) 100 % of control; (dose: 14.0 mg/kg/injection, schedule: Q01DX009 (ip), vehicle: alcohol) 122 % of control; (dose: 22.0 mg/kg/injection, schedule: Q01DX009 (ip), vehicle: alcohol) 108 % of control.
In the case of `COc1cc(/C=N\NC(C)=O)cc(OC)c1OC`, the T/C was 100 % of control under setting [9], 90 % of control under setting [1] and 90 % of control under setting [2].
`CC1CNC(=O)O1` (configuration not stated): the T/C is 115 % of control (dose: 100.0 mg/kg/injection, schedule: Q04DX003 (ip), vehicle: saline); 110 % of control (dose: 200.0 mg/kg/injection, schedule: Q04DX003 (ip), vehicle: saline); 95 % of control (dose: 400.0 mg/kg/injection, schedule: Q04DX003 (ip), vehicle: saline).
With `CCOC(=O)CCN(C)C`, the T/C runs as follows: under setting [4], 102 % of control; (dose: 200.0 mg/kg/injection, schedule: Q01DX009 (ip), vehicle: saline) 95 % of control; under setting [5], 102 % of control.
With `O=C(O)CCCCCS`, the T/C reads like this: under setting [10], 100 % of control; under setting [6], 102 % of control; under setting [8], 99 % of control.
Regarding `CC(=O)N(N=Nc1ccccc1)c1cccc2ccccc12`, the T/C was 109 % of control and 113 % of control (dose: 25.0 mg/kg/injection, schedule: Q01DX009 (ip), vehicle: Klucel (hydroxypropylcellulose) (HPC)); 103 % of control (dose: 35.0 mg/kg/injection, schedule: Q01DX009 (ip), vehicle: Klucel (hydroxypropylcellulose) (HPC)); 107 % of control under setting [10]; 100 % of control (dose: 50.0 mg/kg/injection, schedule: Q04DX003 (ip), vehicle: Klucel (hydroxypropylcellulose) (HPC)); 110 % of control under setting [7].
With `OCc1ccccc1F`, the T/C runs as follows: (dose: 100.0 mg/kg/injection, schedule: Q01DX009 (ip), vehicle: saline with Tween-80) 88 % of control; under setting [1], 100 % of control; (dose: 200.0 mg/kg/injection, schedule: Q01DX009 (ip), vehicle: saline with Tween-80) 103 % of control; under setting [2], 109 % of control; (dose: 400.0 mg/kg/injection, schedule: Q01DX009 (ip), vehicle: saline with Tween-80) 111 % of control.
On to `CC(C)NC(=O)c1ccccc1Sc1ccccc1C(=O)NC(C)C`, for which the T/C was 105 % of control under setting [1], 105 % of control under setting [2] and 99 % of control under setting [3].
In the case of `O=C1NC(c2ccccc2Cl)Nc2ccccc21` (configuration not stated), the T/C was 100 % of control and 115 % of control under setting [6]; 115 % of control and 120 % of control under setting [8].
Regarding `FC(F)(F)C(F)(F)c1nc2nc(Cl)c(Cl)nc2[nH]1`, the T/C (dose: 25.0 mg/kg/injection, schedule: Q01DX009 (ip), vehicle: other) is 100 % of control and the T/C (dose: 50.0 mg/kg/injection, schedule: Q01DX009 (ip), vehicle: other) was 114 % of control.
In the case of `COc1cc2c(c(OC)c1OC)-c1cc(I)c(O)cc1[C@@H](NC(C)=O)CC2`, the T/C was 110 % of control (dose: 2.75 mg/kg/injection, schedule: Q04DX003 (ip), vehicle: saline with Tween-80); 104 % of control (dose: 5.5 mg/kg/injection, schedule: Q04DX003 (ip), vehicle: saline with Tween-80); 155 % of control (dose: 11.0 mg/kg/injection, schedule: Q04DX003 (ip), vehicle: saline with Tween-80); 160 % of control (dose: 22.0 mg/kg/injection, schedule: Q04DX003 (ip), vehicle: saline with Tween-80); 185 % of control and 222 % of control (dose: 66.0 mg/kg/injection, schedule: Q04DX003 (ip), vehicle: saline with Tween-80); 180 % of control and 194 % of control under setting [1]. Besides, the T/C (dose: 150.0 mg/kg/injection, schedule: Q04DX003 (ip), vehicle: saline with Tween-80) was 205 % of control.
